What all share (type): cell-based
The test system of experiment [1] is Streptococcus uberis BL246. An excerpt: (§1) All bacterial strains including S. aureus strains (M3842, M905-1, and M3850) ([22]), S. uberis strains (M100/11, BL246, and ALP8092) ([23]) and E. coli (9217/10) were isolated from bovine mastitis milk ([24]). All strains were maintained on Trypticase soy agar plates with 5% sheep blood (Becton Dickinson AG, Allschwil, Switzerland) and always freshly plated the day before the experiment. Bacterial colonies were suspended in 0.85% NaCl solution (Axon Lab AG, Baden, Switzerland) to reach an OD value of 0.5 (DensiCHECK PLUS, Biomérieux, Genève, Switzerland), corresponding to approximately 1–1.5 × 10^8 cell/ml. The minimum inhibitory concentration (MIC) of cathelicidins was determined by the broth microdilution method as previously described ([25]). Bacteria were further diluted to approximately 1 × 10^5 cells/ml in cation-adjusted Mueller-Hinton (MH) broth (Thermo Fisher Scientific). Several twofold peptide dilutions (40–0.3 µM) were prepared in a volume of 50 µl MH II broth (Becton Dickinson AG) in a round-bottom 96-well plate. Finally, 50 µl of 10^5 cells/ml were added to the peptide dilutions to reach a final concentration of 5 × 10^4 cells/ml.

Experiment [2] concerns Escherichia coli 9217/10.
Excerpt: as §1

Experiment [3] deals with Staphylococcus aureus M3850.
Excerpt: as §1

The test system of experiment [4] is Streptococcus uberis M100/11.
Excerpt: as §1

The subject of experiment [5] is Staphylococcus aureus M905-1.
Excerpt: as §1

The subject of experiment [6] is Streptococcus uberis ALP8092.
Excerpt: as §1

The test system of experiment [7] is Staphylococcus aureus M3842.
Excerpt: as §1

Experiment [8] deals with Mx1 in primary bovine turbinate epithelial cells (BT cells). Nature of the experiment: Mx1 induction in BT cells (western blot), nucleic acid sensing. The settings on record: poly(I:C) alone, titration, 20 h, western blot (Figure S3). The protocol:
Primary bovine turbinate epithelial cells (BT cells) were obtained as previously described ([26]) and the cultures maintained in DMEM supplemented with 10% FBS, non-essential amino acids (NEAA), neomycin/bacitracin, penicillin/streptomycin (stock solutions purchased from Biochrom), and GlutaMAX (Thermo Fisher Scientific). BT cells were plated in 24-well plates at 50,000 cells/well and incubated for 18 h at 37°C in 5% CO2. For induction of Mx, cathelicidins were mixed with 100 ng/ml of poly(I:C) in a final volume of 1 ml, incubated for 10 min at room temperature, and then added to the cells. Alternatively, different dilutions of neutrophil-derived supernatants were mixed with poly(I:C) at 100 ng/ml in complete medium (DMEM with 10% FBS, NEAA, neomycin/bacitracin, penicillin/streptomycin, and GlutaMAX). Positive controls for Mx1 induction included cell treatment with 100 ng/ml of bovine rIFN-α and 1 µg/ml of poly(I:C). Cultures were further incubated at 37°C for 20 h. […]
Figure 5 Bovine myeloid antimicrobial peptide (BMAP)-27, sBAMP-27, BMAP-28, BMAP-34, and Bac1 promote nucleic acid sensing in primary epithelial cells. […] After 20 h incubation, Mx1 and β-actin were detected by western blot. […] After 20 h of culture, Mx1 and β-actin were detected by western blot. […]
(In general: In western blotting, separated proteins are transferred to a membrane and probed.)

Experiment [9] concerns bovine neutrophils. Briefly: ROS in neutrophils (CM-H2DCFDA flow cytometry). The settings on record: 100 ng/ml PMA for 10 min, then 1 h culture; three animals in duplicates. As for the experimental part: Bovine neutrophil granulocytes were isolated as previously described with a few adaptations ([20], [21]). Bovine blood sampling was performed in compliance with the Swiss animal protection law and approved by the animal welfare committee of the Canton of Bern, Switzerland, license number BE102/15. Briefly, 200 ml of blood was drawn from the jugular vein of cows at the Clinic for Ruminants (Vetsuisse Faculty, University of Bern, Switzerland) and was directly mixed with citrate-based anti-coagulant Alsever’s solution (1.55 mM of C6H12O6, 408 mM of Na3C6H5O7⋅2H2O, 1.078 mM of NaCl, and 43 mM of C6H8O7, pH 6.2). […] Neutrophils were recovered in the pellet, washed once with PBS/EDTA, counted in Trypan blue solution, and resuspended at 5 × 10^7 cells/ml in RPMI 1640 medium (Biochrom GmbH, Berlin, Germany). […] Aliquots of 5 × 10^6 neutrophils per tube were used to quantify ROS. […]
Figure 6 Cathelicidins can be detected in the supernatants of phorbol myristate acetate (PMA)-activated neutrophils. […] (A) Forward and side scatter characteristics of neutrophils stimulated with PMA or left unstimulated were evaluated by flow cytometry (left). […] (B) Histogram overlay of CM-H2DCFDA fluorescence as an indicator of ROS formation. […]

Converted amounts (≈) assume the structure as drawn. Bridge positions count the residues as written; N and C are the ends. Ends that are not written are not given here. Peptide text beside a SMILES is read from it. Where only a bound is given, the exact number is not on record here.

For orientation: MIC means the least concentration at which growth counts as inhibited. A low value points to greater potency. Consider GGLRSLGRKILRAWKKYGPIIVPIIRIG [BMAP-28], for which the MIC in experiment [1] was 10.00 ± 0 µM; in [2] it was 10.00 ± 0 µM; in experiment [3], 17.78 ± 4.41 µM; in [4], 10.00 ± 0 µM; in experiment [5] it was 14.44 ± 5.27 µM; in [6], 10.00 ± 0 µM. In experiment [7], this compound showed a minimum inhibitory concentration (MIC) of 13.33 ± 5 µM.

Consider GLPKLHFRRKKGKLVSFPLKFKFKIRL [sBMAP-27], for which the minimal inhibitory concentration (MIC) turned out to be 5.56 ± 1.67 µM in experiment [1]; 10.00 ± 0 µM in experiment [2]; 17.78 ± 4.41 µM in experiment [3]; 5.00 ± 0 µM in experiment [4]; 20.00 ± 0 µM in experiment [5]; 8.33 ± 2.5 µM in experiment [6]. In addition, the minimal inhibitory concentration (MIC) in experiment [7] was no less than 20 ± 10 µM.

As to “RFRPPIRRPPIRPPFYPPFRPPIRPPIFPPIRPPFRPPLGPFP [Bac5]”, the MIC is 6.11 ± 2.2 µM in [1]; greater than 20 µM in [2]; greater than 20 µM in experiment [3]; 2.78 ± 0.83 µM in experiment [4]; greater than 20 µM in [5]; 20.00 ± 0 µM in experiment [6]. The compound also displayed an MIC in [7] greater than 20 µM.

Regarding `CC[C@H](C)[C@@H]1NC(=O)[C@H](CCCNC(=N)N)NC(=O)[C@@H](NC(=O)[C@H](CC(C)C)NC(=O)[C@@H](N)CCCNC(=N)N)CSSC[C@@H](C(=O)N[C@@H](CCCNC(=N)N)C(=O)O)NC(=O)[C@H](C(C)C)NC(=O)[C@H](CCCNC(=N)N)NC(=O)[C@H]([C@@H](C)CC)NC(=O)[C@H](C(C)C)NC(=O)[C@H](C(C)C)NC1=O` [Bac1] (H-RLCRIVVIRVCR-OH; disulfide 3-11), the minimal inhibitory concentration (MIC) in experiment [1] is 20.00 ± 0 µM (≈ 29.7 µg/mL); in experiment [2], greater than 20 µM; in [3], no less than 20 ± 6.67 µM; in experiment [4], 13.33 ± 5 µM (≈ 19.8 µg/mL); in experiment [5], greater than 20 µM; in [6] it was no less than 20 ± 10 µM. In addition, the MIC in experiment [7] was greater than 20 µM.

For the compound “AGLFRRLRDSIRRGQQKILEKARRIGERIKDIFRG [BMAP-34]”, the MIC stood at 4.17 ± 1.25 µM in [1]; 5.00 ± 0 µM in experiment [2]; 10.00 ± 0 µM in [3]; 5.00 ± 0 µM in experiment [4]; 14.44 ± 5.27 µM in experiment [5]; 5.00 ± 0 µM in [6]. The compound further came in with an MIC in experiment [7] of 12.22 ± 4.41 µM.

Take “Polyinosinic–polycytidylic acid [poly(I:C)]”: the “concentration of poly(I:C) below which induction of Mx1 was not detectable” value in experiment [8] amounted to 156 ng/mL.

Turning to GRFKRFRKKFKKLFKKLSPVIPLLHLG [BMAP-27], the MIC in [1] stood at 4.17 ± 1.25 µM; in experiment [2] it was 2.50 ± 0 µM; in experiment [3], 7.22 ± 2.64 µM; in [4], 2.78 ± 0.83 µM; in experiment [5], 8.33 ± 2.5 µM; in experiment [6], 4.72 ± 0.83 µM. The compound further showed an MIC in experiment [7] of 5.00 ± 0 µM.

As for `CCCCCCCCCCCCCC(=O)O[C@@H]1[C@@H](C)[C@@]2(O)[C@@H](C=C(CO)C[C@]3(O)C(=O)C(C)=C[C@@H]23)[C@@H]2C(C)(C)[C@]12OC(C)=O` [PMA, phorbol myristate acetate], the “fluorescence intensity of CM-H2DCFDA (ROS indicator) compared to unstimulated neutrophils” value in experiment [9] is on record as “significantly higher”.
